Data taken from patent US11642341B2, “Combination of brexpiprazole and nalmefene and use thereof for treating substance-related disorders” (OTSUKA PHARMACEUTICAL CO., LTD., priority 2014, dated 2023).
Counter-ions that a name gives are not always drawn.

What was measured:
[1] = system: Wistar rats; assay: Measurement of alcohol intake by limited access paradigm; assay type: in vivo; details: data not shown
Method: Measurement method: An impulsive behavior of cravings for drinking alcohol was evaluated as follows by reference to the method of Sinclair et al. (Alcohol 1992; 9:441-44 and Alcohol & Alcoholism 2001; 36:2-10). First, Wistar rats (male) were allowed to freely drink 10% aqueous ethanol solution and tap water for several weeks under isolated rearing. After the ethanol intake of each animal became stable, limited access paradigm allowing ethanol intake only for 1 hr per day was started, and the ethanol intake in 1 hr was measured every day. The ethanol intake was calculated from the results of weight measurement of a water supply bottle filled with 10% aqueous ethanol solution immediately before the start of the limited access paradigm and immediately after the completion of the limited access paradigm. […] The limited access paradigm test was performed during 9:00 AM-4:00 PM. […]
The significance level of the test was set to 5%. […] The difference between an average ethanol intake in the limited access paradigm for 4 days immediately before drug evaluation and an average ethanol intake in the limited access paradigm for 4 days during the drug administration period was calculated for every animal, and analyzed by two-way factorial analysis of variance by using the presence or absence of brexpiprazole and the presence or absence of nalmefene as factors.

[2] = system: rat; assay: Spontaneous locomotor activity under novel environments; assay type: in vivo; details: data not shown
[3] = system: Wistar rats; details: report Alcohol & Alcoholism 2001; 36: 2-10; present dose 0.04 mg/kg; cited from earlier work
[4] = brexpiprazole alone 0.01 mg/kg orally
[5] = nalmefene hydrochloride monohydrate alone 0.04 mg/kg subcutaneously

In the case of O=c1ccc2ccc(OCCCCN3CCN(c4cccc5sccc45)CC3)cc2[nH]1 [brexpiprazole, 7-[4-(4-benzo[b]thiophen-4-yl-piperazin-1-yl)butoxy]-1H-quinolin-2-one], the “influence on ethanol intake, drug by itself” value [1, 4] is reported as “does not, by itself, influence” and the “influence on spontaneous locomotor activity under novel environments, drug by itself” value [2, 4] is reported as “does not, by itself, influence”.
For C=C1CC[C@@]2(O)[C@H]3Cc4ccc(O)c5c4[C@@]2(CCN3CC2CC2)[C@H]1O5 [nalmefene hydrochloride monohydrate], the “influence on ethanol intake, drug by itself” value [1, 5] was “does not, by itself, influence” and the “influence on spontaneous locomotor activity under novel environments, drug by itself” value [2, 5] was “does not, by itself, influence”.
For C=C1CC[C@@]2(O)[C@H]3Cc4ccc(O)c5c4[C@@]2(CCN3CC2CC2)[C@H]1O5 [nalmefene, 17-(cyclopropylmethyl)-4,5α-epoxy-6-methylenemorphinan-3,14-diol], the “dose at which nalmefene used singly shows effects in this evaluation system, relative to the dose used in the present test” value [3] is given as “about 10 times”.
